Results from patent US6537593B2, “Plant phenol as new hepatoprotective agents” (Council of Scientific and Industrial Research, priority 2000, dated 2003).

Experiments:
HIV = conditions: cited from earlier work
[1] = test system: p-388 lymphocyte leukemia; conditions: cited from earlier work
Male wistar rats = assay: Carbon tetrachloride induced hepatotoxicity in rats (serum AST and ALT); type: in vivo, rat; conditions: for Protection against CCl4 induced toxicity: orally, rats
Protocol: Carbon tetrachloride is a classical method to induce free radical mediated hepatotoxicity. In order to evaluate the free radical mediated hepatotoxicity and heptoprotective properties in the compound (−)-wikstromol, this method was employed. Male wistar rats were selected for study. The compound was dissolved in a small amount of DMSO and reconstituted in gum acacia/water. The compound was given one hour before CCl4 administration to the over-night fasted rats in a dose of 250 mg/kg-body weight, orally. After one hour, a mixture of CCl4 and liquid paraffin (1:1, v/v) in the dose of 2.5 ml/kg was given orally. Fasting was continued. However, water was provided ad-libitum. After 5 hrs of CCl4 administration, blood was taken out from the retroorbital plexus. Serum aspartase transaminase and serum alanine transaminase was measured as a marker of hepatotoxicity.
Carbon tetrachloride induced toxicity was repeated as referred in the example 2 by changing the dosage level to 300 mg/kg-body weight, orally. Fasting was continued. However, water was provided ad-libitum. After 5hrs of CCl4 administration, blood was taken out from the retroorbital plexus. Serum aspartase transaminase and serum alanine transaminase was measured as a marker of hepatotoxicity.

[2] = serum, 5 hours after CCl4 administration, compound 250 mg/kg orally one hour before CCl4 2.5 ml/kg, mean ± SD

## COc1cc(C[C@@H]2COC(=O)[C@@]2(O)Cc2ccc(O)c(OC)c2)ccc1O [(−)-wikstromol, 4,4^1,8-trihydroxy-3,3^1-dimethoxyliganan-9,9^1-olide]
HIV
  Anti-HIV activity: anti-HIV activity
[1]
  Activity against p-388 lymphocyte leukemia: active
Male wistar rats; 250 mg/kg-body weight
  Protection against CCl4 induced toxicity: significantly prevented CCl4 induced toxicity
Male wistar rats; 300 mg/kg-body weight
  Protection against CCl4 induced toxicity: shows significant activity and prevented CCl4 induced toxicity
Male wistar rats; dosage of 250 to 300 mg/kg of body weight
  Hepatoprotective effectiveness: highly effective
Male wistar rats; serum alanine transaminase before oral administration of compound and CCl4, mean ± SD, 250 mg/kg group
  ALT (U/L) Before: 42 ± 7 U/L
Male wistar rats; serum aspartate transaminase before oral administration of compound and CCl4, mean ± SD, 250 mg/kg group
  AST (U/L) Before: 281 ± 91 U/L
Male wistar rats; [2]
  ALT (U/L) After: 188 ± 66 U/L
  AST (U/L) After: 557 ± 126 U/L
